{"source": "patent US20080152736A1", "about": "“Lipid Fraction of Nigella Sativa L. Seeds” (priority 2004, published 2008)", "key": {"Staphylococcus pyogenes": {"test_system": "Staphylococcus pyogenes", "assay": "In vitro antimicrobial comparison, bore method (zone of inhibition)", "format": "cell-based", "settings": "Ampicillin 1: g/mg; mean ± S.E. of 4 observations", "description": "(§1) The comparative antibacterial activity of ampicillin (1 microg/mg) and the Nigella sativa L. lipid fraction (1 mg/ml) against Staphylococcus pyogenes, Corynebacterium pyogenes and Salmonella typhi murium was performed in vitro using the bore method described by Cooper and Woodman (1964)."}, "Corynebacterium pyogenes": {"test_system": "Corynebacterium pyogenes", "assay": "In vitro antimicrobial comparison, bore method (zone of inhibition)", "format": "cell-based", "settings": "Ampicillin 1: g/mg; mean ± S.E. of 4 observations", "description": "as §1"}, "Salmonella typhi murium": {"test_system": "Salmonella typhi murium", "assay": "In vitro antimicrobial comparison, bore method (zone of inhibition)", "format": "cell-based", "settings": "Ampicillin 1: g/mg; mean ± S.E. of 4 observations", "description": "as §1"}, "[1]": {"test_system": "guinea pigs exposed to histamine aerosol (0.25%)", "assay": "Prophylactic anti-asthmatic effect, preconvulsive time on histamine aerosol", "format": "in vivo", "settings": "ketotifen 50: g/kg, treated for 21 days; histamine (0.25%) aerosol", "description": "This example explains in vivo studies to evaluate the prophylactic (protective) anti-asthmatic effect of the Nigella sativa L. lipid fraction of the present invention. The prophylactic anti-asthmatic effect was evaluated in vivo by measurement of the preconvulsive time in guinea pigs exposed to histamine aerosol (0.25%).\nGuinea pigs were divided into three groups with 8 animals per group. The first group received saline with injection to serve as negative control. The second group received ketotifen, which is the standard treatment to serve as positive control. The third group received 200 mg/kg each of the Nigella sativa L. lipid fraction of the present invention.\nAnimals in all groups were treated for 21 days following, after which they were exposed to histamine (0.25%) aerosol and the preconvulsive time was recorded."}, "[2]": {"test_system": "sensitized guinea pigs exposed to ova albumin inhalation", "assay": "Tachypnea protective effect in ova albumin sensitized animals", "format": "in vivo", "settings": "ketotifen 50: g/kg, treated for 21 days", "description": "This experiment was an in vivo study to evaluate the tachypnea (protective) effect of the Nigella sativa L. lipid fraction of the present invention. The second protocol involved sensitized animals. Animals were sensitized by injecting ova albumin in two doses 100 mg each (S.C. and I.P., simultaneously). Animals were resensitized 15 days later. Guinea pigs were divided into three groups with 8 animals per group. The first group received a saline injection to serve as negative control. The second group received ketotifen which is the standard treatment to serve as positive control. The third group received 200 mg/kg each of the Nigella sativa L. lipid fraction of the present invention. Animals in all groups were treated for 21 days following which they were exposed to ova albumin inhalation and time to onset of tachypnea was recorded as shown in the table below."}, "[3]": {"settings": "16 published human studies, total of 590 subjects; cited from earlier work"}}}
{"compound": "CC1(C)S[C@@H]2[C@H](NC(=O)[C@H](N)c3ccccc3)C(=O)N2[C@H]1C(=O)O", "note": "[Ampicillin, ampicillin]", "values": [{"measurement": "Diameter of Zone of inhibition", "setting": "Staphylococcus pyogenes", "value": "26.7 ± 0.3", "unit": "mm"}, {"measurement": "Diameter of Zone of inhibition", "setting": "Corynebacterium pyogenes", "value": "44.7 ± 0.8", "unit": "mm"}, {"measurement": "Diameter of Zone of inhibition", "setting": "Salmonella typhi murium", "value": "13.1 ± 0.2", "unit": "mm"}]}
{"compound": "CN1CCC(=C2c3ccccc3CC(=O)c3sccc32)CC1", "note": "[ketotifen]", "values": [{"measurement": "% of Prophylaxis (Protection)", "setting": "[1]", "value": 82.85, "unit": "%"}, {"measurement": "% of Prophylaxis", "setting": "[2]", "value": 44.4, "unit": "%"}]}
{"compound": "phytosterol", "values": [{"measurement": "average reduction in total cholesterol", "setting": "[3]", "value": 10, "unit": "%"}, {"measurement": "reduction in LDL cholesterol levels", "setting": "[3]", "value": 13, "unit": "%"}]}
